Reference: ChEMBL document CHEMBL1135346, “2,5-Pyridinedicarboxylic acid derivatives as non-nucleosidic reverse transcriptase inhibitors of hepatitis B virus” (Bioorg Med Chem Lett, 2002)
≈ marks a conversion by molar mass, not a printed value.

What was measured:
[1] = Inhibitory activity against Hepatitis B virus reverse transcriptase (HBV-RT) at 1 ug/mL
[2] = Inhibitory activity against Hepatitis B virus reverse transcriptase (HBV-RT) at 0.01 ug/mL
[3] = Inhibitory activity against Hepatitis B virus reverse transcriptase (HBV-RT) at 0.1 ug/mL
[4] = Inhibitory concentration against Hepatitis B virus reverse transcriptase (HBV-RT)
[5] = Inhibitory concentration against Hepatitis B virus-Reverse-transcriptase (HBV-RT)

SMILES | inhibition [1] | inhibition [2] | inhibition [3] | IC50 [4] | IC50 [5]
COCCNC(=O)c1ccc(C(=O)N2CCN(c3ncccc3NC(C)C)CC2)nc1 | 80% | 60% | 68% | 0.001 µg/mL (≈ 0.00234 µM) | 
CC(C)Nc1cccnc1N1CCN(C(=O)c2ccc(C(=O)NCCCn3ccnc3)cn2)CC1 | 89% | 65% | 72% | 0.001 µg/mL (≈ 0.0021 µM) | 
CCNc1cccnc1N1CCN(C(=O)c2ccc(C(=O)NCCOC)cn2)CC1 | 75% | 36% | 57% | 0.049 µg/mL (≈ 0.119 µM) | 
CC(C)CNC(=O)c1ccc(C(=O)N2CCN(c3ncccc3NC(C)C)CC2)nc1 | 83% | 61% | 65% | 0.002 µg/mL (≈ 0.00471 µM) | 
CC(C)Nc1cccnc1N1CCN(C(=O)c2ccc(C(=O)NC(C)(C)CO)cn2)CC1 | 80% | 62% | 65% |  | 0.001 µg/mL (≈ 0.00227 µM)
CC(C)Nc1cccnc1N1CCN(C(=O)c2ccc(C(=O)NC3CCCC3)cn2)CC1 | 75% | 39% | 65% | 0.029 µg/mL (≈ 0.0664 µM) | 
CCNc1cccnc1N1CCN(C(=O)c2ccc(C(=O)NCCN3CCOCC3)cn2)CC1 | 66% | 30% | 52% | 0.109 µg/mL (≈ 0.233 µM) | 
CC(C)CNc1cccnc1N1CCN(C(=O)c2ccc(C(=O)NCCCn3ccnc3)cn2)CC1 | 88% | 60% | 72% | 0.002 µg/mL (≈ 0.00408 µM) | 
COCCCNC(=O)c1ccc(C(=O)N2CCN(c3ncccc3NC(C)C)CC2)nc1 | 63% | 28% | 53% | 0.13 µg/mL (≈ 0.295 µM) | 
CC(C)NC(=O)c1ccc(C(=O)N2CCN(c3ncccc3NC(C)C)CC2)nc1 | 65% | 23% | 51% | 0.149 µg/mL (≈ 0.363 µM) | 
CC(C)(CO)NC(=O)c1ccc(C(=O)N2CCN(c3ncccc3N)CC2)nc1 | 70% | 38% | 62% | 0.038 µg/mL (≈ 0.0954 µM) | 
CC(C)Nc1cccnc1N1CCN(C(=O)c2ccc(C(=O)Nc3ccccn3)cn2)CC1 | 74% | 26% | 55% | 0.085 µg/mL (≈ 0.191 µM) | 
CC(C)Nc1cccnc1N1CCN(C(=O)c2ccc(C(=O)NCCCO)cn2)CC1 | 71% | 49% | 60% | 0.012 µg/mL (≈ 0.0281 µM) | 
COCCNC(=O)c1ccc(C(=O)N2CCN(c3ncccc3NCC(C)C)CC2)nc1 | 85% | 52% | 70% | 0.007 µg/mL (≈ 0.0159 µM) | 
COCCCNC(=O)c1ccc(C(=O)N2CCN(c3ncccc3NCC(C)C)CC2)nc1 | 72% | 20% | 51% | 0.123 µg/mL (≈ 0.271 µM) | 
CC(C)Nc1cccnc1N1CCN(C(=O)c2ccc(C(=O)NCCN3CCOCC3)cn2)CC1 | 70% | 49% | 60% | 0.012 µg/mL (≈ 0.0249 µM) | 
CC(C)Nc1cccnc1N1CCN(C(=O)c2ccc(C(=O)NCc3ccccn3)cn2)CC1 | 77% | 53% | 62% | 0.007 µg/mL (≈ 0.0152 µM) | 
Cc1cc(NC(=O)c2ccc(C(=O)N3CCN(c4ncccc4NC(C)C)CC3)nc2)no1 | 72% | 25% | 50% | 0.11 µg/mL (≈ 0.245 µM) | 

SMILES | inhibition [1] | inhibition [2] | inhibition [3] | IC50 [4] | IC50 [5]
CCNc1cccnc1N1CCN(C(=O)c2ccc(C(=O)NC(C)C)cn2)CC1 | 85% | 54% | 67% | 0.006 µg/mL (≈ 0.0151 µM) | 
CCNc1cccnc1N1CCN(C(=O)c2ccc(C(=O)NCCO)cn2)CC1 | 84% | 52% | 69% | 0.007 µg/mL (≈ 0.0176 µM) | 
CC(C)CNc1cccnc1N1CCN(C(=O)c2ccc(C(=O)NC(C)C)cn2)CC1 | 90% | 58% | 66% | 0.005 µg/mL (≈ 0.0118 µM) | 
CC(C)NC(=O)c1ccc(C(=O)N2CCN(c3ncccc3N)CC2)nc1 | 79% | 43% | 62% | 0.023 µg/mL (≈ 0.0624 µM) | 
CC(C)CNc1cccnc1N1CCN(C(=O)c2ccc(C(=O)NCCO)cn2)CC1 | 86% | 54% | 60% | 0.009 µg/mL (≈ 0.0211 µM) | 
CC(C)Nc1cccnc1N1CCN(C(=O)c2ccc(C(=O)NC(C)(C)C)cn2)CC1 | 88% | 61% | 72% | 0.002 µg/mL (≈ 0.00471 µM) | 
Nc1cccnc1N1CCN(C(=O)c2ccc(C(=O)NCCO)cn2)CC1 | 74% | 54% | 67% | 0.003 µg/mL (≈ 0.0081 µM) | 
CC(C)CNc1cccnc1N1CCN(C(=O)c2ccc(C(=O)NC3CC3)cn2)CC1 | 87% | 60% | 71% | 0.002 µg/mL (≈ 0.00473 µM) | 
CCNc1cccnc1N1CCN(C(=O)c2ccc(C(=O)NC(C)(C)CO)cn2)CC1 | 72% | 32% | 56% | 0.068 µg/mL (≈ 0.159 µM) | 
Cc1ccn(NC(=O)c2ccc(C(=O)N3CCN(c4ncccc4NC(C)C)CC3)nc2)n1 | 70% | 20% | 53% | 0.124 µg/mL (≈ 0.276 µM) | 
CC(C)Nc1cccnc1N1CCN(C(=O)c2ccc(C(=O)NCCO)cn2)CC1 | 54% | 30% | 51% | 0.261 µg/mL (≈ 0.633 µM) | 
CC(C)Nc1cccnc1N1CCN(C(=O)c2ccc(C(=O)NC3CC3)cn2)CC1 | 62% | 5% | 51% | 0.237 µg/mL (≈ 0.58 µM) | 
Nc1cccnc1N1CCN(C(=O)c2ccc(C(=O)NCc3ccccn3)cn2)CC1 | 72% | 22% | 54% | 0.106 µg/mL (≈ 0.254 µM) | 
CC(C)CNc1cccnc1N1CCN(C(=O)c2ccc(C(=O)Nc3ncccc3O)cn2)CC1 | 71% | 13% | 46% | 0.17 µg/mL (≈ 0.357 µM) | 
CC(C)CNc1cccnc1N1CCN(C(=O)c2ccc(C(=O)NC(C)(C)CO)cn2)CC1 | 90% | 63% | 71% | 0.001 µg/mL (≈ 0.0022 µM) | 
CCNc1cccnc1N1CCN(C(=O)c2ccc(C(=O)NCc3ccccn3)cn2)CC1 | 70% | 19% | 56% | 0.116 µg/mL (≈ 0.26 µM) | 
COC(CNC(=O)c1ccc(C(=O)N2CCN(c3ncccc3NC(C)C)CC2)nc1)OC | 87% | 57% | 65% | 0.005 µg/mL (≈ 0.011 µM) | 
